The target in one assay is T1, recombinant MMP-2 (Homo sapiens, UniProt P08253).
T1 construct: purchased ab139446
T1 sequence (P08253 110-660): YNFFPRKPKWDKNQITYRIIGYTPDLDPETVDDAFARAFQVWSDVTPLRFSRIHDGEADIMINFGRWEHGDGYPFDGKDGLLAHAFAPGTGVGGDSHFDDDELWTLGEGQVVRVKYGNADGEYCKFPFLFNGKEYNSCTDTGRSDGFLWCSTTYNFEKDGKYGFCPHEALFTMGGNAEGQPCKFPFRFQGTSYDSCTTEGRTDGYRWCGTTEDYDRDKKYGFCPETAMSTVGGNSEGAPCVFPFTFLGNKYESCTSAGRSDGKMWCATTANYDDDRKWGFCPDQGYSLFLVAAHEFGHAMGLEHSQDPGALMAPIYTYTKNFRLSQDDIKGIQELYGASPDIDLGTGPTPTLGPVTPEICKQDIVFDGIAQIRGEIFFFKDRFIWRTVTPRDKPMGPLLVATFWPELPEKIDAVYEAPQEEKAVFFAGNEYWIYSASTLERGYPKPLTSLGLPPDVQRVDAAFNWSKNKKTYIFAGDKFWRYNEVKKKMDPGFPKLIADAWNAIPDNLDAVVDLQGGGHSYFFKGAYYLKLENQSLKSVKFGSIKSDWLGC
The experiment in a line: MMP-2 Inhibitor Screening Assay Kit (colorimetric). The assay is classed as biochemical. The following applies: lower value = higher inhibitory activity. As for the experimental part:
MMP-2 is an important target for inhibitor screening due to its involvement in cancer growth, angiogenesis, and metastasis. The MMP-2 screening assay was carried out with a commercially available MMP-2 Inhibitor Screening Assay Kit (Colorimetric, Catalog: ab139446) based on the manufacturers protocol. This assay is based on quantification of recombinant MMP-2 activity using a colorimetric assay (MMP-2 degrades a chromogenic substrate). The assay provides NNGH (N-isobutyl-N-(4-methoxyphenylsulfonyl) glycyl hydroxamic acid), a small molecule inhibitor, as a positive control (NNGH). […] Each determination was run in duplicate.
% Inhibition rate=(Vinhibitor/Vcontrol)×100
Briefly, MMP Substrate and MMP Inhibitor were warmed to room temperature to thaw DMSO. MMP Inhibitor (NNGH), MMP-2 substrate and MMP-2 enzyme were diluted with assay buffer to required concentration. 20 μL of MMP-2 enzyme and MMP-2 inhibitor (peptides, Chlorotoxin and NNGH) was added, then 50 μL of assay buffer was added and the reaction mixture incubated at 37° C. for 1 h. After incubation, 10 μL of MMP Substrate was added to start reaction. The reactions were continuously read at 412 nm in a microplate reader. Data was recorded at 1 min. time intervals for 10 to 20 min. The data as was plotted as optical density (OD) versus time for each sample. The reaction velocity (V) was obtained in OD/min: determine the slope of a line fit to the linear portion of the data plot using an appropriate routine. Then using the equation above the inhibitor % activity remaining was calculated. The control was without inhibitor.

The subject of the next assay is U251 cells. The experiment in a line: BME cell invasion assay, U251. The assay is classed as cell-based, human. The conditions noted are these: 1 μM, 24 h. How it is done: (§1) To assess whether the ability of SEQ ID NO.1 to inhibit MMP-2 activity and, to a lesser extent, reduce the production of matrix proteinases and downregulate the expression of EMT markers, was of functional consequence in reducing the invasiveness of the GBM cells, the ability of the peptide was tested at the concentrations of 1, 10 and 100 μM (none of which are toxic to cells) to inhibit invasion of the GBM cells through a basement membrane. This assay, described in more detail below, is an in vitro surrogate for measurement of the in vivo invasion by tumour cells of their environment.
(§2) The cell invasion assay employs a simplified Boyden chamber-like design that consists of two chambers separated by a filter (an 8 μm polycarbonate (PC) membrane) coated with basement membrane or different extracellular matrix components. The cell suspension is placed in the top chamber and incubated in the presence of test media containing specific chemo-attractants in the bottom chamber. Cells migrate from the top chamber to the bottom of the filter by degrading the coating over the filter pores. Detection of cell invasion is quantified using Calcein AM. Cell dissociation/Calcein AM solution is placed in the bottom chamber to dissociate the migrating cells from the filter. Calcein AM is internalized by the cells, and intracellular-esterases cleave the aceto-methylester (AM) moiety. Free Calcein fluoresces brightly and is used to quantitate the number of cells that have invaded or migrated by comparison with a standard curve (In Vitro Technologies Pty Ltd, (https://lifescience.invitro.com.au/brands/r-and-d-systems/).
(§3) The filter was coated with PathClear® growth factor reduced BME. The selected peptides were applied to the cells in both upper and lower wells to make sure the concentration of peptides were the same and the chemoattractant was serum at a concentration of 2% (for adherent U87 & U251 cells) or growth factor mix required in the medium (for non- adherent, 081024 oncospheres).
(§4) Cell invasion was determined using CultureCoat® 96 Well Medium BME Cell Invasion assay. Briefly, the cells were pre-starved 24 h before harvest. Then seeding 25,000 per well of cell in the upper chamber with serum free medium together different concentration of peptide. The bottom chamber also added different concentration of peptides with 2% (V/V) serum for GBM adherent cells or growth factor mix for neurosphere cells as chemoattractant. After 24 h incubation, the invading cells were measured by Calcein AM and calculated based on standard curve.
(§5) The results are shown in Table 12, the results are expressed as % inhibition.

The test system of a further assay is U87 cells. The experiment in a line: BME cell invasion assay, U87. The assay is classed as cell-based, human. The following applies: 1 μM, 24 h. How it is done: as §1, §2, §3, §4, §5
In the next assay the test system is 081024 cells. Briefly: BME cell invasion assay, 081024. The assay is classed as cell-based, human. The following applies: 1 μM, 24 h. How it is done: as §1, §2, §3, §4, §5

Take `COc1ccc(S(=O)(=O)N(CC(=O)NO)CC(C)C)cc1` [NNGH, N-isobutyl-N-(4-methoxyphenylsulfonyl) glycyl hydroxamic acid, reference compound]: the remaining activity on recombinant MMP-2 (1.3 μM) stood at 2.29%.
For the compound Chlorotoxin [reference compound], the results for the “Invasion Inhibition Index (%)” value with U251 cells, in the assay with U87 cells and in the assay with 081024 cells were 28.50%, 39.5% and 45.0%, respectively. Moreover, on recombinant MMP-2 (1 μM, 1 h preincubation at 37° C.), the remaining activity came to 67.94%.

What is called remaining activity is the share of the control activity or signal that is left under treatment.

The values above are taken from patent publication US20240059740A1, “CYCLIC PEPTIDES AND USES THEREOF” (PRE[…] INC., priority 2020, published 2024).
